Converted amounts (≈) assume the structure as drawn. Each block holds one compound with its values, some of them ahead of it.
Assays:
Assay in all cases: ≥ marks a high value that may be exact or a test limit, other limits are often not marked, values filed in µg/mL are converted to µM
[1] = test system: Staphylococcus aureus 1550
[2] = test system: Pseudomonas aeruginosa ATCC 9027
[3] = test system: Escherichia coli ATCC 2592
[4] = test system: Staphylococcus aureus ATCC 6538
[5] = test system: Candida albicans ATCC 36232
[6] = test system: Micrococcus luteus ATCC 9341
[7] = test system: Staphylococcus aureus CIP 53.156
[8] = test system: Escherichia coli CIP 76.24
[9] = test system: Mycobacterium tuberculosis H37Rv
[10] = test system: Mycobacterium tuberculosis CSU87
[11] = test system: Escherichia coli HB101
[12] = test system: Pseudomonas aeruginosa
[13] = test system: Salmonella typhimurium
[14] = test system: Bacillus subtilis
[15] = test system: Staphylococcus aureus
[16] = test system: Neurospora crassa
[17] = test system: Fusarium culmorum
[18] = test system: Pediococcus acidilactici
[19] = test system: Ascochyta pisi
[20] = test system: Alternaria brassicicola
[21] = test system: Bacillus megaterium
[22] = test system: Fusarium haematococcum
[23] = test system: Botrytis cinerea
[24] = test system: Trichoderma viride
[25] = test system: Micrococcus luteus
[26] = test system: Aerococcus viridans

MIC [1]: ≥ 49.7 µM
MIC [2]: 8.67 µM (≈ 11 µg/mL)
MIC [3]: 15 µM (≈ 19 µg/mL)
MIC [4]: 12.6 µM (≈ 16 µg/mL)
MIC [5]: ≥ 78.8 µM
MIC [6]: 7.88 µM (≈ 10 µg/mL)
SMILES: CC(C)[C@H](NC(=O)[C@H](CCCCN)NC(=O)[C@H](Cc1ccccc1)NC(=O)[C@@H](NC(=O)[C@@H](NC(=O)[C@H](CCCCN)NC(=O)[C@@H](N)Cc1cnc[nH]1)C(C)C)C(C)C)C(=O)N[C@@H](CCCCN)C(=O)N[C@@H](Cc1ccccc1)C(=O)N[C@@H](Cc1cnc[nH]1)C(=O)O [HKVVFKVKFH]

MIC [7]: 9 µM (≈ 16.6 µg/mL)
MIC [8]: ≥ 49 µM
SMILES: CC[C@H](C)[C@H](N)C(=O)N1CCC[C@H]1C(=O)N[C@@H](Cc1c[nH]c2ccccc12)C(=O)NCC(=O)N[C@@H](CCCCN)C(=O)N[C@H](C(=O)N[C@@H](CCCCN)C(=O)N[C@@H](CC(=O)O)C(=O)N[C@@H](Cc1ccccc1)C(=O)N[C@@H](CC(C)C)C(=O)N[C@H](C(=O)NCC(=O)NCC(=O)N[C@@H](CCSC)C(=O)N[C@@H](CCCCN)C(=O)N[C@@H](C)C(=O)N[C@H](C(N)=O)C(C)C)C(C)C)C(C)C [IPWGKVKDFLVGGMKAV]

MIC [9]: ≥ 449 µM
MIC [10]: ≥ 112 µM
SMILES: CSCC[C@H](NC(=O)[C@H](CCCCN)NC(=O)[C@H](CCCCN)NC(=O)[C@H](CC(C)C)NC(=O)[C@H](CC(C)C)NC(=O)[C@H](CCCCN)NC(=O)[C@H](CCCCN)NC(=O)[C@H](CC(C)C)NC(=O)[C@@H](N)CC(C)C)C(N)=O [LLKKLLKKM]

MIC [11]: 0.64 µM (≈ 1.49 µg/mL)
MIC [12]: 2.6 µM (≈ 6.07 µg/mL)
MIC [13]: 1.3 µM (≈ 3.03 µg/mL)
MIC [14]: 5.2 µM (≈ 12.1 µg/mL)
MIC [15]: 10.4 µM (≈ 24.3 µg/mL)
SMILES: CC[C@H](C)[C@H](NC(=O)[C@@H](NC(=O)[C@@H]1CCCN1C(=O)[C@@H](NC(=O)[C@@H]1CCCN1C(=O)[C@H](CCCCN)NC(=O)[C@H](CCCCN)NC(=O)[C@H](CO)NC(=O)CN)C(C)C)[C@@H](C)CC)C(=O)N[C@@H](Cc1ccc(O)cc1)C(=O)N[C@H]1CSSC[C@@H](C(=O)N[C@@H](CCC(N)=O)C(=O)N[C@@H](CCCN=C(N)N)C(=O)N[C@@H](CCSC)C(=O)O)NC(=O)[C@H](CCCCN)NC(=O)CNC(=O)[C@H](CCCN=C(N)N)NC(=O)[C@H](CCCN=C(N)N)NC(=O)[C@H](CC(N)=O)NC1=O [GSKKPVPIIYCNRRGKCQRM]

MIC [16]: 14.1 µM (≈ 28.5 µg/mL)
MIC [17]: 14.1 µM (≈ 28.5 µg/mL)
MIC [18]: 28.3 µM (≈ 57.1 µg/mL)
MIC [19]: 28.3 µM (≈ 57.1 µg/mL)
MIC [20]: 7.07 µM (≈ 14.3 µg/mL)
MIC [21]: 7.07 µM (≈ 14.3 µg/mL)
MIC [22]: 7.07 µM (≈ 14.3 µg/mL)
MIC [23]: 7.07 µM (≈ 14.3 µg/mL)
MIC [24]: 28.3 µM (≈ 57.1 µg/mL)
MIC [25]: 7.07 µM (≈ 14.3 µg/mL)
MIC [26]: 3.54 µM (≈ 7.14 µg/mL)
SMILES: CC[C@H](C)[C@H](NC(=O)[C@@H](NC(=O)[C@@H]1CCCN1C(=O)[C@@H](NC(=O)[C@@H]1CCCN1C(=O)[C@H](CCCCN)NC(=O)[C@H](CCCCN)NC(=O)[C@H](CO)NC(=O)CN)C(C)C)[C@@H](C)CC)C(=O)N[C@@H](Cc1ccc(O)cc1)C(=O)N[C@H]1CSSC[C@@H](C(=O)O)NC(=O)[C@H](CCCCN)NC(=O)CNC(=O)[C@H]([C@@H](C)O)NC(=O)[C@H](CCCN=C(N)N)NC(=O)[C@H](CCCN=C(N)N)NC(=O)[C@H](CC(N)=O)NC1=O [GSKKPVPIIYCNRRTGKC]

Reference: DBAASP
